Source: patent US20040242669A1, “Method of treating deficits associated with brain injury” (priority 2003, published 2004)
Marks after values point to notes of the source that are not given here.

Experiments:
Assay type in all cases: in vivo, rat
[1] = tested on: reduced glutathione in brain areas of rats subjected to chronic brain occlusive ischemia; assay: Brain glutathione content and redox index after chronic brain occlusive ischemia; conditions: for reduced glutathione content: mean ± S.E.M.
From the text: (§1) A number of animals were subjected to a manipulation of the four major arteries of the brain with a method similar to that described by Pulsinelli et al., Ann. Neurol, 11, 491-498 (1982). Both vertebral arteries were cauterised under sodium pentobarbital anaesthesia and polyethylene cuffs PE-10 were placed loosely around the common carotid arteries without completely interrupting carotid blood flow. Two months after operation, all surviving animals showing no neurological gross abnormalities were admitted to drug treatment. Animals undergoing a sham operation were considered as controls.
(§2) At the end of the behavioral studies, the brain of animals sacrificed by decapitation were taken and rapidly frozen for analysis. Dissection and weighing were carried out at −25° C. The frozen forebrains were immediately powered under liquid nitrogen by an electromechanical apparatus and stored at […]. The assay of reduced and oxidized glutathione by 5,5′-dithibis-(2-nitrobenzoic acid) in frozen forebrain powder was carried out within 3 h, utilizing perchloric acid and N-ethylmaleimide in presence of ethylenediamidetetraacetic acid for the extraction procedure (Tietze, Anal Biochem, 27, 502-522, (1969)).
(§3) Animals with 2-month chronic brain occlusive ischemia, were subjected to a treatment with ropinirole, DHECP or saline for 7 days. At the end of treatment, the animals were admitted to behavioral testing. Controls were those animals with sham manipulation of brain arteries.
(§4) All animals used for hypobaric hypoxia induced amnesia and for chronic brain occlusive ischemia was sacrificed at the end behavioral procedure for biochemical analyses.

[2] = tested on: animals with chronic brain occlusive ischemia; assay: Shuttle-box active avoidance acquisition, chronic brain occlusive ischemia; conditions: for CARs: chronic brain occlusive ischemia (2 months), mean ± S.E.M.
Experimental: (§5) Male rats of the Sprague-Dawley strain (purchased from Charles River, Italy) weighing 280±20 g were used throughout all experiments. The animals were housed two-three to a cage under a constant light-dark cycle (lights on between 8.00 and 20.00) at 21° C. Commercial food and tap water were available ad libitum. All animals were used only once in the behavioral experiments.
as §1
(§6) Ropinirole (ropinirole hydrochloride, SmithKline Beecham, Italy) and dihydroergocryptine (DHECP) α-dihydroergocryptine methanesulfonate, Monsanto, Italy) were dissolved in saline and injected subcutaneously (s.c.) at the dose of 0.5 and 1 mg/kg/day for 7 days. In the experiments with kainate-induced convulsions, ropinirole or DHECP were injected intravenously (i.v.) 30 min prior, and again at the same time of the intracerebroventricular (i.c.v) injection on kainic acid; Control animals received an injection of saline alone with the same procedure.
(§7) Academic Press, New York, pp59-775, (1981). Briefly, the rats were trained to avoid the unconditioned stimulus (US) of a scrambled electrical foot-shock (0.20 mA) delivered through the grid floor. The conditioned stimulus (CS) was a buzzer presented for 3 s prior to the US. If no escape occurred within 20 s of CS/US presentation, the shock was terminated. A maximum of 30 conditioning trials were given with a variable intertrial interval averaging 60 s. The learning criterion was five consecutive conditioned avoidance responses (CARs). For those animals that reached the criterion in less than 30 trials, the remaining trials until 30 were considered as CARs. Indexes of avoidance behaviour were the total number of CARs and the percent number of learners per group.
as §3

[3] = tested on: animals with hypobaric hypoxia-induced amnesia; assay: Open field spontaneous motor activity, hypobaric hypoxia; conditions: for Ambulation / Defecation / Grooming / Rearing: 5 min open field, mean ± S.E.M.
Experimental: as §5, §6
Spontaneous motor activity was scored in a circular open field arena as described by Weijnen and Slangen, Pituitary, Adrenal and the Brain, pp221-235 (1982). Animals were put inside a circular lit-up arena, with the bottom divided into 27 areas of equal size.
(§8) In the first experiment, the effects of ropinirole or DHECP were studied on amnesia induced by hypobaric hypoxia in rats. After a 7-day pretreatment with ropinirole, DHECP or saline, a group of animals was subjected to acute hypobaric hypoxia by means of a hypobaric chamber (Chantiers et Ateliers de Bretagne, France) causing depression to 300 mmHg (Boismare et al., Gerentology, 24, 6-13 (1978)). After 3 min in the chamber, the animals were removed and admitted for behavioral testing. Intact control rats were also introduced into the chamber but not subjected to hypobaric hypoxia.

[4] = tested on: animals with hypobaric hypoxia-induced amnesia; assay: Shuttle-box active avoidance acquisition, hypobaric hypoxia-induced amnesia; conditions: for Learners / CARs: hypobaric hypoxia; for CARs: mean ± S.E.M.
Experimental: as §5, §6
as §7, with “Shuttle-box active avoidance acquisition was studied in a single session test as described in Bohus and De Wied, Endogenous Peptides and Learning and Memory Processes. Academic” for “Academic”
as §8

[5] = tested on: reduced glutathione in brain areas of rats subjected to hypobaric hypoxia; assay: Brain glutathione content and redox index after hypobaric hypoxia; conditions: for reduced glutathione content: mean ± S.E.M.
Experimental: as §2, §8, §4

Question: How did the “glutathione redox index (glutathione reduced/glutathione oxidized ratio)” value ([1]; Cortex, 0.5 mg/kg) turn out when `CC(C)C[C@H]1C(=O)N2CCC[C@H]2[C@]2(O)O[C@](NC(=O)[C@@H]3C[C@@H]4c5cccc6[nH]cc(c56)C[C@H]4N(C)C3)(C(C)C)C(=O)N12` [DHECP, α-dihydroergocryptine methanesulfonate] was run?
Answer: Its value is 2.5.

Question: What about the reduced glutathione content ([1]; Cortex, 0.5 mg/kg) of the same compound?
Answer: The reduced glutathione content was 2.3 ± 0.1 mM.

Question: And the “glutathione redox index (glutathione reduced/glutathione oxidized ratio)” value ([1]; Cortex, 1 mg/kg)?
Answer: The value was 2.3.

Question: What about the reduced glutathione content ([1]; Cortex, 1 mg/kg) of the same compound?
Answer: The reduced glutathione content was 2.6 ± 0.2 mM.

Question: And the “glutathione redox index (glutathione reduced/glutathione oxidized ratio)” value ([1]; Hippocampus, 0.5 mg/kg)?
Answer: The value was 1.8.

Question: What about the reduced glutathione content ([1]; Hippocampus, 0.5 mg/kg) of the same compound?
Answer: Its reduced glutathione content is 2.0 ± 0.2 mM.

Question: What about the “glutathione redox index (glutathione reduced/glutathione oxidized ratio)” value ([1]; Hippocampus, 1 mg/kg) of the same compound?
Answer: Its value is 2.2.

Question: And the reduced glutathione content ([1]; Hippocampus, 1 mg/kg)?
Answer: Its reduced glutathione content is 2.3 ± 0.3 mM.

Question: What about the “glutathione redox index (glutathione reduced/glutathione oxidized ratio)” value ([1]; Hypothalamus, 0.5 mg/kg) of the same compound?
Answer: Its value is 2.6.

Question: And the reduced glutathione content ([1]; Hypothalamus, 0.5 mg/kg)?
Answer: Its reduced glutathione content is 2.8 ± 0.2 mM.

Question: And the “glutathione redox index (glutathione reduced/glutathione oxidized ratio)” value ([1]; Hypothalamus, 1 mg/kg)?
Answer: Its value is 2.7.

Question: What about the reduced glutathione content ([1]; Hypothalamus, 1 mg/kg) of the same compound?
Answer: The reduced glutathione content was 2.7 ± 0.2 mM.

Question: What about the “glutathione redox index (glutathione reduced/glutathione oxidized ratio)” value ([1]; Striatum, 0.5 mg/kg) of the same compound?
Answer: The value was 0.7.

Question: What about the reduced glutathione content ([1]; Striatum, 0.5 mg/kg) of the same compound?
Answer: Its reduced glutathione content is 1.8 ± 0.2 mM.

Question: What about the “glutathione redox index (glutathione reduced/glutathione oxidized ratio)” value ([1]; Striatum, 1 mg/kg) of the same compound?
Answer: The value was 0.7.

Question: And the reduced glutathione content ([1]; Striatum, 1 mg/kg)?
Answer: Its reduced glutathione content is 1.7 ± 0.2 mM.

Question: What about the CARs ([2]; 0.5 mg/kg/day s.c. for 7 days) of the same compound?
Answer: The CARs was 10.6 ± 1.1^a.

Question: And the CARs ([2]; 1 mg/kg/day s.c. for 7 days)?
Answer: The CARs was 14.1 ± 1.1^a.

Question: And the Learners ([2]; chronic brain occlusive ischemia, 0.5 mg/kg/day s.c. for 7 days)?
Answer: The Learners was 20^b percent.

Question: And the Learners ([2]; chronic brain occlusive ischemia, 1 mg/kg/day s.c. for 7 days)?
Answer: The Learners was 10^b percent.

Question: What about the “cognitive parameters of the active avoidance test (effect of treatment, in words)” value ([2]; chronic brain occlusive ischemia, Table 2) of the same compound?
Answer: The value was “No statistically significant change”.

Question: What about the Ambulation ([3]; 0.5 mg/kg/day s.c. for 7 days) of the same compound?
Answer: Its Ambulation is 68.9 ± 6.6^b.

Question: And the Defecation ([3]; 0.5 mg/kg/day s.c. for 7 days)?
Answer: Its Defecation is 3.4 ± 0.9.

Question: And the Grooming ([3]; 0.5 mg/kg/day s.c. for 7 days)?
Answer: Its Grooming is 22.2 ± 2.3.

Question: And the Rearing ([3]; 0.5 mg/kg/day s.c. for 7 days)?
Answer: The Rearing was 16.4 ± 1.3^a,b.

Question: What about the Ambulation ([3]; 1 mg/kg/day s.c. for 7 days) of the same compound?
Answer: The Ambulation was 73.1 ± 5.6^a,b.

Question: And the Defecation ([3]; 1 mg/kg/day s.c. for 7 days)?
Answer: Its Defecation is 3.7 ± 1.3.

Question: What about the Grooming ([3]; 1 mg/kg/day s.c. for 7 days) of the same compound?
Answer: The Grooming was 23.3 ± 2.1.

Question: What about the Rearing ([3]; 1 mg/kg/day s.c. for 7 days) of the same compound?
Answer: The Rearing was 16.5 ± 1.9^b.

Question: And the “ambulation and rearing (effect of treatment, in words)” value ([3]; vs intact controls and saline-treated hypoxic animals)?
Answer: Its value is “higher”.

Question: And the “number of CARs and percent number of learners in the shuttle-box (effect of treatment, in words)” value ([4]; hypobaric hypoxia-induced amnesia, summary of Table 1)?
Answer: Its value is “increase in these behavioral parameters, however, for the latter only with the greater dose”.

Question: What about the Learners ([4]; 0.5 mg/kg/day s.c. for 7 days) of the same compound?
Answer: Its Learners is 30^c percent.

Question: What about the CARs ([4]; 0.5 mg/kg/day s.c. for 7 days) of the same compound?
Answer: The CARs was 13.0 ± 1.3^a.

Question: What about the Learners ([4]; 1 mg/kg/day s.c. for 7 days) of the same compound?
Answer: Its Learners is 80^d percent.

Question: And the CARs ([4]; 1 mg/kg/day s.c. for 7 days)?
Answer: The CARs was 18.1 ± 1.2^b.

Question: And the “glutathione redox index (glutathione reduced/glutathione oxidized ratio)” value ([5]; Cortex, 0.5 mg/kg)?
Answer: The value was 2.5.

Question: And the reduced glutathione content ([5]; Cortex, 0.5 mg/kg)?
Answer: The reduced glutathione content was 2.2 ± 0.2 mM.

Question: And the “glutathione redox index (glutathione reduced/glutathione oxidized ratio)” value ([5]; Cortex, 1 mg/kg)?
Answer: Its value is 2.3.

Question: What about the reduced glutathione content ([5]; Cortex, 1 mg/kg) of the same compound?
Answer: Its reduced glutathione content is 2.5 ± 0.2 mM.

Question: What about the “glutathione redox index (glutathione reduced/glutathione oxidized ratio)” value ([5]; Hippocampus, 0.5 mg/kg) of the same compound?
Answer: Its value is 1.8.

Question: What about the reduced glutathione content ([5]; Hippocampus, 0.5 mg/kg) of the same compound?
Answer: The reduced glutathione content was 2.1 ± 0.2 mM.

Question: What about the “glutathione redox index (glutathione reduced/glutathione oxidized ratio)” value ([5]; Hippocampus, 1 mg/kg) of the same compound?
Answer: Its value is 2.2.

Question: What about the reduced glutathione content ([5]; Hippocampus, 1 mg/kg) of the same compound?
Answer: The reduced glutathione content was 2.4 ± 0.2 mM.

Question: What about the “glutathione redox index (glutathione reduced/glutathione oxidized ratio)” value ([5]; Hypothalamus, 0.5 mg/kg) of the same compound?
Answer: Its value is 2.6.

Question: And the reduced glutathione content ([5]; Hypothalamus, 0.5 mg/kg)?
Answer: Its reduced glutathione content is 2.8 ± 0.2 mM.

Question: What about the “glutathione redox index (glutathione reduced/glutathione oxidized ratio)” value ([5]; Hypothalamus, 1 mg/kg) of the same compound?
Answer: The value was 2.8.

Question: What about the reduced glutathione content ([5]; Hypothalamus, 1 mg/kg) of the same compound?
Answer: Its reduced glutathione content is 2.8 ± 0.2 mM.

Question: And the “glutathione redox index (glutathione reduced/glutathione oxidized ratio)” value ([5]; Striatum, 0.5 mg/kg)?
Answer: The value was 0.7.

Question: And the reduced glutathione content ([5]; Striatum, 0.5 mg/kg)?
Answer: The reduced glutathione content was 1.8 ± 0.2 mM.

Question: What about the “glutathione redox index (glutathione reduced/glutathione oxidized ratio)” value ([5]; Striatum, 1 mg/kg) of the same compound?
Answer: The value was 1.7.

Question: And the reduced glutathione content ([5]; Striatum, 1 mg/kg)?
Answer: The reduced glutathione content was 2.5 ± 0.2 mM.

Question: And the “reduced glutathione content and glutathione redox index (effect of treatment, in words)” value ([5]; cortex, hippocampus and hypothalamus, both doses)?
Answer: The value was “increase”.

Question: And the “reduced glutathione content and glutathione redox index (effect of treatment, in words)” value ([5]; striatum)?
Answer: The value was “only with the greater dose”.
